In ChEMBL document CHEMBL4308865, “Discovery of 4-alkoxy-6-methylpicolinamide negative allosteric modulators of metabotropic glutamate receptor subtype 5” (Bioorg Med Chem Lett, 2019):

Assays:
[1] = target: T1, Metabotropic glutamate receptor 5 (Homo sapiens, UniProt P41594); assay: Negative allosteric modulation of human mGlu5 receptor assessed as inhibition of glutamate induced-calcium mobilization relative to glutamate; assay type: functional
Target sequence in this assay (P41594 21-1212 limits assumed): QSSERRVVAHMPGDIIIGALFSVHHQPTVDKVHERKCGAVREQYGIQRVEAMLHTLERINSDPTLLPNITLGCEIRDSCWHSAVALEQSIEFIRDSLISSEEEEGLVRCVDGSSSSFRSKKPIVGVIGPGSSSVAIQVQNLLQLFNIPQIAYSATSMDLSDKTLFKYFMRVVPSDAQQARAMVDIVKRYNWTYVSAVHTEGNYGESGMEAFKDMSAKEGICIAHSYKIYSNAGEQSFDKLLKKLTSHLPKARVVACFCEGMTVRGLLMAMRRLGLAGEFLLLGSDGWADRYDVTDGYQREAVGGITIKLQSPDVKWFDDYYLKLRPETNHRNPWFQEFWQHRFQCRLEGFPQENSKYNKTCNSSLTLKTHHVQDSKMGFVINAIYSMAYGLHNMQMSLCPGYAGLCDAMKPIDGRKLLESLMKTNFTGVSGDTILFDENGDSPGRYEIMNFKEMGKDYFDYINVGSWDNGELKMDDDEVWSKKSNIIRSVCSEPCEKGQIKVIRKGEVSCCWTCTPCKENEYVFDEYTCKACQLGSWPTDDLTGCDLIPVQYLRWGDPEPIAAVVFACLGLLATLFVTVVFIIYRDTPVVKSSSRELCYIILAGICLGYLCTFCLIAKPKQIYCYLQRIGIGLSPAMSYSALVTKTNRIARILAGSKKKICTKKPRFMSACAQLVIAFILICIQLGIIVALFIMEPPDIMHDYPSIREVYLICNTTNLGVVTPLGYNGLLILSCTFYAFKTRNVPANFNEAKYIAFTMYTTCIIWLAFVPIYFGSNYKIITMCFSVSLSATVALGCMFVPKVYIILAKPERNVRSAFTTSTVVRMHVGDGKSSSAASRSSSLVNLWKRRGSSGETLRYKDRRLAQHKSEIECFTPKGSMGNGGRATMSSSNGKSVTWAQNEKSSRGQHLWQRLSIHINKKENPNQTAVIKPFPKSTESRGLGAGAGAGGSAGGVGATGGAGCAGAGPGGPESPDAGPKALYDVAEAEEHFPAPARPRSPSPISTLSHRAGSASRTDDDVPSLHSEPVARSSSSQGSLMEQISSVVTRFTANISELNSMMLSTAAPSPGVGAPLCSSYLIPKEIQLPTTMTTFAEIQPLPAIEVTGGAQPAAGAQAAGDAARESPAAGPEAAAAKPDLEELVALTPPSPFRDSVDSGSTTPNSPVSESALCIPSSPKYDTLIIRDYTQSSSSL

[2] = target: T1, Metabotropic glutamate receptor 5; assay: Negative allosteric modulation of human mGlu5 receptor assessed as inhibition of glutamate induced-calcium mobilization; assay type: functional
Target sequence in this assay (P41594 whole entry): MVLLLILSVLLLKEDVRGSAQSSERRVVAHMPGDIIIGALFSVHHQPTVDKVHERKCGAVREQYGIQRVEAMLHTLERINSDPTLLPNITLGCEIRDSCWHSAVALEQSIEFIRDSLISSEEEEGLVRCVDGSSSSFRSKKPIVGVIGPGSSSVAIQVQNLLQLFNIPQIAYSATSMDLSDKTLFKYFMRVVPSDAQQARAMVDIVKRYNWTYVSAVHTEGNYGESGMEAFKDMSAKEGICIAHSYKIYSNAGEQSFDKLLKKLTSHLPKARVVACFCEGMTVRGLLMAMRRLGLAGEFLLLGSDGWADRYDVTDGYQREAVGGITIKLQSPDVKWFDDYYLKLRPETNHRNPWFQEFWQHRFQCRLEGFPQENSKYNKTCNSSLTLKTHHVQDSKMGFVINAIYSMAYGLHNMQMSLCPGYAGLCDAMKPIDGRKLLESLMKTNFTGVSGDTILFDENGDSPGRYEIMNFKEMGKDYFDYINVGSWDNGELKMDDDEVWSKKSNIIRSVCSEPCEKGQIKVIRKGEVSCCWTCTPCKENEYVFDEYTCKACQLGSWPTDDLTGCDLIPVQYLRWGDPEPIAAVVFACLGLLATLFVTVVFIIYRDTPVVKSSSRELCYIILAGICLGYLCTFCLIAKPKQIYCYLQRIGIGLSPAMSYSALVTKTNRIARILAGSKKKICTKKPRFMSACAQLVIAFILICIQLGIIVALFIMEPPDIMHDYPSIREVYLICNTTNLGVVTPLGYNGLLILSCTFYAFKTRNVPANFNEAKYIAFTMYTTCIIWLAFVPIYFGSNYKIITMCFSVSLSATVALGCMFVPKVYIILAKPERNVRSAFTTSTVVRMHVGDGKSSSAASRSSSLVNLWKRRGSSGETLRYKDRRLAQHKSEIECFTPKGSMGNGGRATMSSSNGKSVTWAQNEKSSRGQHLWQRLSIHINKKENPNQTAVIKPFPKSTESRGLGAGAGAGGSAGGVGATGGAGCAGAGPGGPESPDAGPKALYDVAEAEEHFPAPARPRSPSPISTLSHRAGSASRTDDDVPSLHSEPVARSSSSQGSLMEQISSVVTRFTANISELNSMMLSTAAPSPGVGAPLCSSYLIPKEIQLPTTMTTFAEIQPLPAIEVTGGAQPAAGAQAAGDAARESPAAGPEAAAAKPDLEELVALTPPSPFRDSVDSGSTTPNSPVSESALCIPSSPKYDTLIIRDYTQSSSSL

[3] = Unbound fraction in human plasma; assay type: ADME, cell-free
[4] = Unbound fraction in rat plasma; assay type: ADME, cell-free
Cytochrome P450 1A2 = target: T2, Cytochrome P450 1A2 (Homo sapiens, UniProt P05177); assay: Inhibition of CYP1A2 (unknown origin); assay type: ADME
T2 sequence (P05177 whole entry): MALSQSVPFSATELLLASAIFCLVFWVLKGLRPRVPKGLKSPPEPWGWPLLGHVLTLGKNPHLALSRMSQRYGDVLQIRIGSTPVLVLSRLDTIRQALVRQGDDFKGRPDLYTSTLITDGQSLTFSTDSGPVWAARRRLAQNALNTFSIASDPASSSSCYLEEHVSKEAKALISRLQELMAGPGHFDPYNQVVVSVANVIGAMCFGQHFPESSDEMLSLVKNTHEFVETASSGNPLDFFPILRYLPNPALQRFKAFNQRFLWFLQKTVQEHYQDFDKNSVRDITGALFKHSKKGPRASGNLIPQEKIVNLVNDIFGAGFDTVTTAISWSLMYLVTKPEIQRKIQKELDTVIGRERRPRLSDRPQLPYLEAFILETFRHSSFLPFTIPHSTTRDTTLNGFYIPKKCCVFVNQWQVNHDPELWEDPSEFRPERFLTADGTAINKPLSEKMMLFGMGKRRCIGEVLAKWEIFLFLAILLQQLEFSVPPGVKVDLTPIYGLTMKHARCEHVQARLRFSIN

[5] = Drug metabolism in human S9 fraction assessed as NADPH-dependent oxidation of furanyl moiety; assay type: ADME, subcellular
[6] = Drug metabolism in dog S9 fraction assessed as NADPH-dependent oxidation of furanyl moiety; assay type: ADME, subcellular, Canis lupus familiaris
Cytochrome P450 2C9 = Cytochrome P450 2C9 (Homo sapiens, UniProt P11712); assay: Inhibition of CYP2C9 (unknown origin); assay type: ADME
[7] = Half life in rat at 0.2 mg/kg, iv; assay type: ADME, organism-based; details: in vivo
[8] = Volume of distribution at steady state in rat at 0.2 mg/kg, iv; assay type: ADME, organism-based; details: in vivo, read-out: Vdss
Cytochrome P450 3A4 = Cytochrome P450 3A4 (Homo sapiens, UniProt P08684); assay: Inhibition of CYP3A4 (unknown origin); assay type: ADME
Cytochrome P450 2D6 = Cytochrome P450 2D6 (Homo sapiens, UniProt P10635); assay: Inhibition of CYP2D6 (unknown origin); assay type: ADME
[9] = Plasma clearance in rat at 0.2 mg/kg, iv; assay type: ADME, organism-based
[10] = Drug metabolism in rat S9 fraction assessed as NADPH-dependent oxidation of furanyl moiety; assay type: ADME, subcellular
[11] = Brain to plasma partition coefficient, Kp in rat; assay type: ADME, organism-based

Sequence of Cytochrome P450 3A4 (P08684 whole entry): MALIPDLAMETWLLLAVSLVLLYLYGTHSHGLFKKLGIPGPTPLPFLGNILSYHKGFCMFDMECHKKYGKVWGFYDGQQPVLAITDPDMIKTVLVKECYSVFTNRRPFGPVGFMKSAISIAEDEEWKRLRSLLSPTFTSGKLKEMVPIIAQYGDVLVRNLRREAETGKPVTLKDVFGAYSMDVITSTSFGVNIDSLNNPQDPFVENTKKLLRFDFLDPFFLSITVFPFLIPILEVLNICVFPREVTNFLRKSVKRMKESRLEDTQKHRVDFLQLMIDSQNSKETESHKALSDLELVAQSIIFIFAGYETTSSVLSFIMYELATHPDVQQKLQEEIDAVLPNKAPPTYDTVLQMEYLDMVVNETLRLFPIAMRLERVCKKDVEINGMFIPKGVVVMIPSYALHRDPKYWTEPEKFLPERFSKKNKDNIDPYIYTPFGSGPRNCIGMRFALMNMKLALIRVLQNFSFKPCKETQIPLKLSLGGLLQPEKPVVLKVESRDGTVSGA
Sequence of Cytochrome P450 2C9 (P11712 whole entry): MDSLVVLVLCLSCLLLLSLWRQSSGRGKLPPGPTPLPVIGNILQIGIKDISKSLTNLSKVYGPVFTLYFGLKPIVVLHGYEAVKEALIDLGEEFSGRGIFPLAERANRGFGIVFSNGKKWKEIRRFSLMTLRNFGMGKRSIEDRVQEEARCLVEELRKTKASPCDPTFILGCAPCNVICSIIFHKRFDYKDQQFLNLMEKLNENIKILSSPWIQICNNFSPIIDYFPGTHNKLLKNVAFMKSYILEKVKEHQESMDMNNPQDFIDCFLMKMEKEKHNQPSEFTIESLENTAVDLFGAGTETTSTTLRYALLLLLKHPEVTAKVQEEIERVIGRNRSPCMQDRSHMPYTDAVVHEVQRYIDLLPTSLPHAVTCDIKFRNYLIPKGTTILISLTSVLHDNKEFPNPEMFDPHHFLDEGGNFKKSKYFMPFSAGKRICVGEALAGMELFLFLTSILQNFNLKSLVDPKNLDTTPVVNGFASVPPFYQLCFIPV
Sequence of Cytochrome P450 2D6 (P10635 whole entry): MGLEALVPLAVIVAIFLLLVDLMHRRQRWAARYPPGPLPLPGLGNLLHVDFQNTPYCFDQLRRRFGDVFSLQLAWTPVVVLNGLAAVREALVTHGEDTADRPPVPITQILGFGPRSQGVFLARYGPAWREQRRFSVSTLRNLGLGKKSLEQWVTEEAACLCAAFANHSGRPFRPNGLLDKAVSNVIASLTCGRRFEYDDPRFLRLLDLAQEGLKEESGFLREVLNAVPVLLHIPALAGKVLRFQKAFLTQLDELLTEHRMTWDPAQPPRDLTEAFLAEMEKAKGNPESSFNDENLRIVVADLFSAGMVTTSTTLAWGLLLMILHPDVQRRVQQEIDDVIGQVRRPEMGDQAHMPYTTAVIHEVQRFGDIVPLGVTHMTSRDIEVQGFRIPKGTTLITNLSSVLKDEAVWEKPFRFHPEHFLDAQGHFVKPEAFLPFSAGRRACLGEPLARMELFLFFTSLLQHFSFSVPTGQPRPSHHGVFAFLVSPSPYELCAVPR

Cc1cc(OCC2CCCO2)cc(C(=O)Nc2nc(C)cs2)n1 (stereo unspecified)
Efficacy [1]: 1.5% | IC50 [2]: 273 nM

Cc1cc(O[C@H]2CO[C@H](C)C2)cc(C(=O)Nc2nc(CF)cs2)n1
Efficacy [1]: 1.1% | IC50 [2]: 180 nM

Cc1cc(OCC2CCOC2)cc(C(=O)Nc2ccc(F)cn2)n1 (stereo unspecified)
Efficacy [1]: 1% | IC50 [2]: 700 nM

Cc1cc(OC2COC2)cc(C(=O)Nc2ccccn2)n1
Efficacy [1]: 1.3% | IC50 [2]: 66 nM

CO[C@H](C)COc1cc(C)nc(C(=O)Nc2nc(C)cs2)c1
IC50 [2]: 145 nM | Fu [3]: 0.07 | Fu [4]: 0.09

Cc1cc(O[C@@H]2CO[C@H](C)C2)cc(C(=O)Nc2ccc(F)cn2)n1
Efficacy [1]: 1.4% | IC50 [2]: 389 nM

Cc1cc(O[C@H]2CCOC2)cc(C(=O)Nc2nc(C)cs2)n1
Efficacy [1]: 1.4% | IC50 [2]: 107 nM

Cc1cc(OC2CS(=O)(=O)C2)cc(C(=O)Nc2nc(C)cs2)n1
IC50 [2]: 392 nM

Cc1cc(O[C@H]2CO[C@H](C)C2)cc(C(=O)Nc2nc(C3CC3)cs2)n1
Efficacy [1]: 1.3% | IC50 [2]: 899 nM

Cc1cc(OC2CCCC2)cc(C(=O)Nc2ccc(F)cn2)n1
Efficacy [1]: -0.7% | IC50 [2]: 3660 nM

Cc1cc(OC2CCC2)cc(C(=O)Nc2nc(C)cs2)n1
Efficacy [1]: 1.5% | IC50 [2]: 58 nM

Cc1cc(OCC2CCO2)cc(C(=O)Nc2nc(C)cs2)n1 (stereo unspecified)
Efficacy [1]: 1.2% | IC50 [2]: 399 nM

Cc1cc(O[C@@H]2CCOC2)cc(C(=O)Nc2nc(C)cs2)n1
Efficacy [1]: 1.3% | INH (Cytochrome P450 1A2): 0.3 µM | Drug metabolism [5]: Metabolite_Detected | Drug metabolism [6]: Metabolite_Detected | INH (Cytochrome P450 2C9): > 30 µM | IC50 [2]: 28 nM | half-life [7]: 63 min | Fu [3]: 0.08 | Vd [8]: 2.7 L/kg | fraction unbound [4]: 0.11 | INH (Cytochrome P450 3A4): 30 µM | INH (Cytochrome P450 2D6): > 30 µM | clearance [9]: 34 mL/min/kg | Drug metabolism [10]: Metabolite_Detected

COc1cc(C)nc(C(=O)Nc2ccc(F)cn2)c1
Efficacy [1]: 5.5% | IC50 [2]: 7200 nM

Cc1cc(OC2COC2)cc(C(=O)Nc2ccc(F)cn2)n1
Efficacy [1]: 1.1% | INH (Cytochrome P450 1A2): 5.8 µM | INH (Cytochrome P450 2C9): > 30 µM | IC50 [2]: 228 nM | half-life [7]: 28 min | Fu [3]: 0.16 | Vd [8]: 4.5 L/kg | Fu [4]: 0.16 | INH (Cytochrome P450 3A4): > 30 µM | INH (Cytochrome P450 2D6): > 30 µM | clearance [9]: 179 mL/min/kg

Cc1cc(OCC2CCCO2)cc(C(=O)Nc2ccc(F)cn2)n1 (stereo unspecified)
Efficacy [1]: -0.9% | IC50 [2]: 2330 nM

COC[C@H](C)Oc1cc(C)nc(C(=O)Nc2nc(C)cs2)c1
IC50 [2]: 932 nM

COCOc1cc(C)nc(C(=O)Nc2nc(C)cs2)c1
Efficacy [1]: 1.9% | IC50 [2]: 103 nM

Cc1cc(OC2CSC2)cc(C(=O)Nc2nc(C)cs2)n1
IC50 [2]: 31 nM

Cc1cc(O[C@H]2CO[C@H](C)C2)cc(C(=O)Nc2nc(C)c(F)s2)n1
Efficacy [1]: 3.8% | IC50 [2]: 1290 nM

Cc1cc(OC2COC2)cc(C(=O)Nc2nc(C)cs2)n1
Efficacy [1]: 0.5% | IC50 [2]: 51 nM

Cc1cc(O[C@H]2CO[C@H](C)C2)cc(C(=O)Nc2ccc(F)cn2)n1
Efficacy [1]: 1.3% | IC50 [2]: 175 nM

Cc1cc(OC2CCOCC2)cc(C(=O)Nc2ccccn2)n1
Efficacy [1]: 0.9% | IC50 [2]: 1560 nM

Cc1cc(OC2CCOCC2)cc(C(=O)Nc2ccc(F)cn2)n1
Efficacy [1]: -0.2% | IC50 [2]: 1960 nM

Cc1cc(O[C@@H]2CO[C@H](C)C2)cc(C(=O)Nc2nc(C)cs2)n1
Efficacy [1]: 2.1% | IC50 [2]: 112 nM

Cc1cc(OC2C[S+]([O-])C2)cc(C(=O)Nc2nc(C)cs2)n1 (stereo unspecified)
IC50 [2]: 145 nM

Cc1cc(OC2CCCOC2)cc(C(=O)Nc2nc(C)cs2)n1 (stereo unspecified)
Efficacy [1]: 0.9% | IC50 [2]: 140 nM

Cc1cc(OC2CN(S(C)(=O)=O)C2)cc(C(=O)Nc2nc(C)cs2)n1
IC50 [2]: 504 nM

Cc1cc(OC2CCCCC2)cc(C(=O)Nc2ccccn2)n1
Efficacy [1]: 2.1% | IC50 [2]: 1420 nM

Cc1cc(O[C@@H]2CCOC2)cc(C(=O)Nc2ccc(F)cn2)n1
Efficacy [1]: 1.7% | INH (Cytochrome P450 1A2): > 30 µM | INH (Cytochrome P450 2C9): > 30 µM | IC50 [2]: 38 nM | half-life [7]: 46 min | Fu [3]: 0.07 | Vd [8]: 5.5 L/kg | Fu [4]: 0.26 | INH (Cytochrome P450 3A4): > 30 µM | INH (Cytochrome P450 2D6): > 30 µM | clearance [9]: 136 mL/min/kg

Cc1cc(O[C@H]2CO[C@@H](C)C2)cc(C(=O)Nc2ccc(F)cn2)n1
Efficacy [1]: 1.9% | IC50 [2]: 4470 nM

Cc1cc(OC2CCSC2)cc(C(=O)Nc2nc(C)cs2)n1 (stereo unspecified)
IC50 [2]: 77 nM

COC[C@@H](C)Oc1cc(C)nc(C(=O)Nc2nc(C)cs2)c1
IC50 [2]: 1030 nM

Cc1cc(OC2CCCOC2)cc(C(=O)Nc2ccc(F)cn2)n1 (stereo unspecified)
Efficacy [1]: 0.2% | IC50 [2]: 497 nM

Cc1cc(OCC2CCO2)cc(C(=O)Nc2ccc(F)cn2)n1 (stereo unspecified)
Efficacy [1]: -1.1% | IC50 [2]: 2480 nM

Cc1cc(O[C@H]2CO[C@@H](C)C2)cc(C(=O)Nc2nc(C)cs2)n1
Efficacy [1]: 1.1% | IC50 [2]: 684 nM

Cc1cc(O[C@H]2CO[C@H](C)C2)cc(C(=O)Nc2nc(C(F)F)cs2)n1
Efficacy [1]: 1.6% | IC50 [2]: 902 nM

Cc1cc(OC2CCCOC2)cc(C(=O)Nc2ccccn2)n1 (stereo unspecified)
Efficacy [1]: 0.7% | IC50 [2]: 224 nM

Cc1cc(O[C@H]2CO[C@H](C)C2)cc(C(=O)Nc2nc(C(F)(F)F)cs2)n1
Efficacy [1]: 2.7% | IC50 [2]: 5200 nM

Cc1cc(OCC2CCO2)cc(C(=O)Nc2ccccn2)n1 (stereo unspecified)
Efficacy [1]: 0.5% | IC50 [2]: 646 nM

Cc1cc(O[C@H]2CCOC2)cc(C(=O)Nc2ccc(F)cn2)n1
Efficacy [1]: 1% | IC50 [2]: 657 nM

Cc1cc(OCC2CCOC2)cc(C(=O)Nc2nc(C)cs2)n1 (stereo unspecified)
Efficacy [1]: 1.1% | IC50 [2]: 200 nM

Cc1cc(OC2CCCC2)cc(C(=O)Nc2nc(C)cs2)n1
Efficacy [1]: 1.5% | IC50 [2]: 149 nM

Cc1cc(O[C@@H]2CO[C@@H](C)C2)cc(C(=O)Nc2nc(C)cs2)n1
Efficacy [1]: 1.7% | IC50 [2]: 395 nM

Cc1cc(OCC2CCCO2)cc(C(=O)Nc2ccccn2)n1 (stereo unspecified)
Efficacy [1]: 0.8% | IC50 [2]: 725 nM

Cc1cc(O[C@H]2CO[C@H](C)C2)cc(C(=O)Nc2nc(C)cs2)n1
Efficacy [1]: 1.2% | IC50 [2]: 81 nM | Kp [11]: 2.2 | fraction unbound [3]: 0.05 | fraction unbound [4]: 0.1

Cc1cc(OC2CCC2)cc(C(=O)Nc2ccccn2)n1
Efficacy [1]: 1.5% | IC50 [2]: 43 nM

Cc1cc(OCC2COC2)cc(C(=O)Nc2ccc(F)cn2)n1
Efficacy [1]: -3.4% | IC50 [2]: 4300 nM

COCOc1cc(C)nc(C(=O)Nc2ccc(F)cn2)c1
Efficacy [1]: 0.1% | IC50 [2]: 694 nM

Cc1cc(O[C@H]2CCOC2)cc(C(=O)Nc2ccccn2)n1
Efficacy [1]: 1.3% | IC50 [2]: 194 nM

Cc1cc(O[C@@H]2CCOC2)cc(C(=O)Nc2ccccn2)n1
Efficacy [1]: 1.7% | IC50 [2]: 23 nM

CC(=O)N1CC(Oc2cc(C)nc(C(=O)Nc3nc(C)cs3)c2)C1
IC50 [2]: 388 nM

Cc1cc(OCC2CCOC2)cc(C(=O)Nc2ccccn2)n1 (stereo unspecified)
Efficacy [1]: 1.1% | IC50 [2]: 210 nM

CO[C@@H](C)COc1cc(C)nc(C(=O)Nc2nc(C)cs2)c1
IC50 [2]: 1050 nM

Cc1cc(O[C@@H]2CO[C@@H](C)C2)cc(C(=O)Nc2ccc(F)cn2)n1
Efficacy [1]: 2.6% | IC50 [2]: 2040 nM

Cc1cc(OC2CCC2)cc(C(=O)Nc2ccc(F)cn2)n1
Efficacy [1]: 1.6% | IC50 [2]: 182 nM

Cc1cc(OCC2COC2)cc(C(=O)Nc2nc(C)cs2)n1
Efficacy [1]: 1.5% | IC50 [2]: 134 nM

Cc1cc(OCC2COC2)cc(C(=O)Nc2ccccn2)n1
Efficacy [1]: 0.8% | IC50 [2]: 392 nM

COCOc1cc(C)nc(C(=O)Nc2ccccn2)c1
Efficacy [1]: 1.1% | IC50 [2]: 120 nM

Cc1cc(OC2CCCCC2)cc(C(=O)Nc2nc(C)cs2)n1
Efficacy [1]: 1.9% | IC50 [2]: 2100 nM

Cc1cc(OC2CCOCC2)cc(C(=O)Nc2nc(C)cs2)n1
Efficacy [1]: 0.7% | IC50 [2]: 446 nM

Cc1cc(OC2CCCC2)cc(C(=O)Nc2ccccn2)n1
Efficacy [1]: 2.1% | IC50 [2]: 182 nM

Cc1cc(OC2CCCCC2)cc(C(=O)Nc2ccc(F)cn2)n1
Efficacy [1]: 10.4% | IC50 [2]: 3350 nM
